Laboratory results: paper PMC5931107, “Clinical pharmacodynamic/exposure characterisation of the multikinase inhibitor ilorasertib (ABT-348) in a phase 1 dose-escalation trial” (British Journal of Cancer, 2018)
Marks after values point to notes of the source that are not given here.

Assay: Plasma pharmacokinetics, Arm II (oral BID), phase 1 trial
Assay type: in vivo, human
Description: Pharmacokinetics of ilorasertib were evaluated in the dose-escalation cohort on blood samples that were collected on cycle 1 days 1 and 15. Parameters determined: Cmax, time to Cmax (Tmax), terminal phase elimination half-life (t1/2), clearance, apparent oral clearance (CL/F), and area under the plasma concentration-time curve from time 0 to time of last measurable concentration (AUCt) and from time 0 to infinity (AUC∞). For Arm I, blood samples were collected prior to dosing and at 0.5, 1, 2, 3, 4, 6, 8, 10 or 12, and 24 h after dosing on cycle 1 days 1 and 15; of note, for institutions not able to collect the 10- or 12-h post-dose sample, the 24-h sample was replaced with 22-h and 28-h post-dose samples. In Arm II, for the first dose, blood samples were collected pre-dose and at 1, 2, 3, and 4 h post-dose on cycle 1 days 1 and 15; for the second dose, samples were collected pre-dose and at 1, 2, 3, 4, 18, and 24 h after second dose on cycle 1 days 1 and 15. In Arm III, blood samples were collected prior to infusion, at 1 h 55 min (just before end of infusion), and at 0.5, 1, 2, 4, 6, 8, 10, and 24 h after end of infusion on cycle 1 days 1 and 15; here also, for institutions not able to collect the 8-h or 10-h after-end-of-infusion samples, the 24-h sample was replaced with 22-h and 28-h post-dose samples. The liquid chromatography (LC)-mass spectrometry (MS)/MS method was developed and validated in the Bioanalysis Department of AbbVie. Fifty microliter of human plasma (K2EDTA as anticoagulant) was fortified with 300 μL of deuterium-stable labelled internal standard and mixed well. A HybridSPE precipitation plate (50 mg/96 wells, Supelco Analytical, Munich, Germany) was used to directly load and elute (under slight vacuum) the fortified samples into a clean collection plate. Samples were dried before reconstitution with 100 μL of 20/80 (v/v) acetonitrile/water, and injected for LC-MS/MS analysis. A Halo C8 (Wilmington, DE, USA; 2.7 μm, 2.1 × 30 mm) was used on an Agilent 1290 Infinity UPLC pump (Agilent Technologies, Santa Clara, CA) to carry out the separation. An isocratic condition with 25/75/0.1 (v/v/v) acetonitrile/water/98% formic acid was used as the mobile phase. The flow rate was set to be 0.6 mL/min. An MPS 3 C ([…] Ruhr, Germany) autosampler was used to introduce samples onto the UPLC system. An API 4000 mass spectrometer (Applied Biosystems, Foster City, CA) was used in the multiple reactions monitoring mode for the detection and quantitation of analyte. Descriptive statistics were used for demographic variables. The numbers and percentages of patients with treatment-emergent AEs (TEAEs) were tabulated using the Medical Dictionary for Regulatory Activities version 16.0 system organ class and preferred term, and further classified according to CTCAE version 4.0 criteria. The safety data set included all patients who received one or more doses of ilorasertib. The pharmacokinetic data set included all patients who received one or more doses of ilorasertib and had one or more pharmacokinetic samples. Values for pharmacokinetic parameters were determined using non-compartmental methods, with data analysed separately for each arm. A repeated measures analysis was performed for Tmax and dose-normalised Cmax, AUCt, and AUC∞. The model included random effects for patient and fixed effects for dose level, day, and the interaction of dose level and day. To assess effects of exposure on pharmacodynamic biomarkers, Cmax was employed as the directly measured marker of exposure for the rapid changes in DBP and PlGF pre-steady-state, while AUC∞ reflected exposure variability at the time of post-multiple-dose skin biopsy. Descriptive statistics were used to summarise ECOG performance status. The efficacy data set included all patients who received one or more doses of ilorasertib.

[1] = Arm II PO BID 40 mg, day 1, N=2, mean (individual)
[2] = Arm II PO BID 40 mg, day 15, N=3
[3] = Arm II PO BID 60 mg, day 1, N=3
[4] = Arm II PO BID 60 mg, day 15, N=1
[5] = Arm II PO BID 60 mg, day 15, N=3
[6] = Arm II PO BID 90 mg, day 1, N=2, mean (individual)
[7] = Arm II PO BID 90 mg, day 1, N=3
[8] = Arm II PO BID 90 mg, day 15, N=2, mean (individual)
[9] = Arm II PO BID 90 mg, day 15, N=3
[10] = Arm II PO BID 130 mg, day 1, N=3
[11] = Arm II PO BID 130 mg, day 1, N=4
[12] = Arm II PO BID 130 mg, day 15, N=1
[13] = Arm II PO BID 130 mg, day 15, N=3
[14] = Arm II PO BID 190 mg, day 1, N=4
[15] = Arm II PO BID 190 mg, day 1, N=7
[16] = Arm II PO BID 190 mg, day 15, N=2, mean (individual)
[17] = Arm II PO BID 190 mg, day 15, N=5
[18] = Arm II PO BID 230 mg, day 1, N=2, mean (individual)
[19] = Arm II PO BID 230 mg, day 1, N=3
[20] = Arm II PO BID 230 mg, day 15, N=1
[21] = Arm II PO BID 230 mg, day 15, N=4
[22] = Arm II PO BID 340 mg, day 1, N=1
[23] = Arm II PO BID 340 mg, day 1, N=3
[24] = Arm II PO BID 340 mg, day 15, N=1
[25] = Arm II PO BID all doses, day 1, N=14
[26] = Arm II PO BID all doses, day 1, N=26
[27] = Arm II PO BID all doses, day 15, N=7
[28] = Arm II PO BID all doses, day 15, N=22

## Nc1ncc(-c2cnn(CCO)c2)c2scc(-c3ccc(NC(=O)Nc4cccc(F)c4)cc3)c12 [ilorasertib, Ilorasertib]
[1]
  AUC∞/dose: 49.9 (35.6, 64.1)^b ng•h/mL/mg
  CL/F: 21.8 (28.1, 15.6)^b L/h
Arm II PO BID 40 mg, day 1, N=3
  AUCt/dose: 46.5 ± 20.5 ng·h/mL/mg
[2]
  AUCt/dose: 46.9 ± 25.6 ng·h/mL/mg
  Cmax/dose: 2.4 ± 1.3 ng/mL/mg
[3]
  AUCt/dose: 45.4 ± 12.2 ng·h/mL/mg
  Cmax/dose: 3.2 ± 1.2 ng/mL/mg
[4]
  AUC∞/dose: 45.3^b ng•h/mL/mg
  CL/F: 22.1^b L/h
[5]
  AUCt/dose: 24.3 ± 5.9 ng·h/mL/mg
  Cmax/dose: 1.9 ± 0.47 ng/mL/mg
[6]
  AUC∞/dose: 22.4 (14.1, 30.6)^b ng•h/mL/mg
  CL/F: 51.7 (70.7, 32.6)^b L/h
[7]
  AUCt/dose: 21.8 ± 8.5 ng·h/mL/mg
  Cmax: 0.30 ± 0.1 µg/mL
  Cmax/dose: 1.7 ± 0.6 ng/mL/mg
[8]
  AUC∞/dose: 29.6 (41.1, 18.1)^c ng•h/mL/mg
  CL/F: 39.8 (24.3, 55.2)^c L/h
  t1/2 (harmonic mean): 16.2 (23.4, 12.4)^c h
[9]
  AUCt/dose: 22.5 ± 8.4 ng·h/mL/mg
  Cmax/dose: 1.8 ± 0.54 ng/mL/mg
[10]
  AUC∞/dose: 25.1 ± 17.2^c ng•h/mL/mg
  CL/F: 51.5 ± 25.9^c L/h
[11]
  AUCt/dose: 19.5 ± 12.2 ng·h/mL/mg
  Cmax/dose: 2.3 ± 1.5 ng/mL/mg
[12]
  AUC∞/dose: 15.2^b ng•h/mL/mg
  CL/F: 65.7^b L/h
[13]
  AUCt/dose: 9.2 ± 5.0 ng·h/mL/mg
  Cmax/dose: 1.0 ± 1.1 ng/mL/mg
[14]
  AUC∞/dose: 46.8 ± 29.7^d ng•h/mL/mg
  CL/F: 29.6 ± 17.9^d L/h
  t1/2 (harmonic mean): 13.7 ± 9.0^d h
[15]
  AUCt: 8.10 ± 4.44 µg·h/mL
  AUCt/dose: 21.3 ± 11.7 ng·h/mL/mg
  Cmax/dose: 1.4 ± 0.8 ng/mL/mg
[16]
  AUC∞/dose: 28.0 (20.9, 35.2)^c ng•h/mL/mg
  CL/F: 38.1 (47.8, 28.4)^c L/h
[17]
  AUCt/dose: 17.6 ± 13.7 ng·h/mL/mg
  Cmax/dose: 1.7 ± 1.0 ng/mL/mg
[18]
  AUC∞/dose: 19.9 (18.1, 21.7)^b ng•h/mL/mg
  CL/F: 50.8 (55.4, 46.1)^b L/h
[19]
  AUCt/dose: 21.9 ± 7.9 ng·h/mL/mg
  Cmax/dose: 1.5 ± 0.5 ng/mL/mg
[20]
  AUC∞/dose: 28.2^b ng•h/mL/mg
  CL/F: 35.5^b L/h
[21]
  AUCt/dose: 24.4 ± 9.4 ng·h/mL/mg
  Cmax/dose: 1.7 ± 1.0 ng/mL/mg
[22]
  AUC∞/dose: 145^e ng•h/mL/mg
  CL/F: 6.9^e L/h
[23]
  AUCt/dose: 57.8 ± 21.8 ng·h/mL/mg
  Cmax/dose: 3.0 ± 1.3 ng/mL/mg
[24]
  AUCt/dose: 23.0 ng·h/mL/mg
  Cmax/dose: 1.1 ng/mL/mg
[25]
  AUC∞/dose: 42.3 ± 36.5^f ng•h/mL/mg
  CL/F: 37.7 ± 21.8^f L/h
  t1/2 (harmonic mean): 13.0 ± 6.2^f h
[26]
  AUCt/dose: 31.1 ± 18.8 ng·h/mL/mg
  Cmax/dose: 2.2 ± 1.2 ng/mL/mg
[27]
  AUC∞/dose: 29.1 ± 11.7^d ng•h/mL/mg
  CL/F: 39.9 ± 16.7^d L/h
  t1/2 (harmonic mean): 9.9 ± 3.7^d h
[28]
  AUCt/dose: 23.5 ± 15.5 ng·h/mL/mg
  Cmax/dose: 1.7 ± 0.9 ng/mL/mg
